Assay results from patent publication US4242354A, “2-(2-Thenolythio)-propionylglycine: method for its preparation and pharmaceutical formulations containing said compound” (Mediolanum Farmaceutici S.r.L., priority 1978, dated 1980).
Where two headings read alike, the source gives them in different places.

Assays:
elderly patients = assay type: in vivo, man
Method: The drug was assessed, with respect to its mucolytic action, on thirty elderly patients ([…], maximal 87, mean age 72). […] The improvement was assessed on the basis of the following parameters:
decrease of the daily quantity of sputum;
decrease of the viscosity of the sputum;
increase of the Tiffeneau's index;
improved value of the erythrocyte sedimentation rate.
A group of twenty patients, in the same mean age, was given for control purposes a known drug such as N-acetylcysteine.

in vivo [1] = conditions: rat, in vivo
Method: (§1) Hundred-and-forty (140) albino rats, Sprague-Dawley strain, bodyweight 120-135 grams, subdivided into groups each consisting of 5 animals, were used for the investigation. […] For each single compound the LD 50 was assessed according to Litchfield and Wilcoxon on the basis of the mortality rate encountered in the 7 days following the treatment.

rat = assay: in vivo; conditions: 10 animals per dose
Method: as §1

[2] = system: carbon tetrachloride poisoning; assay: Protective activity in the carbon tetrachloride poisoning; assay type: in vivo, male rats (Sprague-Dawley); conditions: CCl4 0.5 ml/mg sc, 7 days; drugs intramuscularly, (I) 200 and 300 mg/kg, (II) 300 mg/kg
Method: Fifty male rats (Sprague-Dawley, 180-200 grams bodyweight) were used for the investigation, subdivided into 5 groups: one group was given no treatment while the remaining 4 groups were poisoned for 7 consecutive days with CCl4 at the dosage of […] given subcutaneously.

bromobenzene poisoning = assay: Protective activity in the bromobenzene poisoning; assay type: in vivo, male rats (Sprague-Dawley); conditions: 300 mg/kg oral, vs investigational compound
Method: Fifty male rats (Sprague-Dawley, 180-200 g bodyweight) were used for the investigation, subdivided into 5 groups, each consisting of 10 animals, given orally the following compounds
(1) 5 percent gum arabic in tap water
(2) 5 percent gum arabic in tap water
(3) 2-(2-thenoylthio)-propionylglycine--200 mg/kg
(4) 2-(2-thenoylthio)-propionylglycine--300 mg/kg
Seven days later, the animals of the groups 2-3-4-[…] were given bromobenzene subcutaneously (150 mg/rat) while the remaining group (control) was given an equivalent volume of saline. Still seven days later, 5 of the animals of each group were given Nembutal (25 mg/kg/intraperitoneally), and the sleeping time was calculated.
The remaining 5 animals of each group were given bromophthalein at the dose of 50 mg intravenously; thirty minutes later, the animals were sacrificed and both the present bromophthalein and SGPT (serum glutamic pyruvic transaminase) were established in the blood.

mercuric chloride = assay: In vivo protective action against mercurial compounds; set-up: species or system male mice (Swiss strain); conditions: 300 mg/kg ip, mercuric chloride 20 mg/kg ip, mice, 24 hours
Method: Forty male mice (Swiss strain, 22 grams mean bodyweight) were used for the investigation, subdivided into 4 groups treated as follows:
(1) mercuric chloride, 20 mg/kg/intraperitoneally;
(4) mercuric chloride 20 mg/kg/intraperitoneally+2-thiopropionylglycine 300 mg/kg/intraperitoneally.
Deaths occurred were recorded hourly in the first 5 hours, and thereafter after 24 hours.

[3] = Stability test: physical properties and weight variations on heating; assay type: physicochemical
Method: (§2) The stability tests were carried out according to the Rogers' nonisothermic method suitably integrated by the evaluation of physical data, melting point, weight variation, and spectrophotometric assay. For each single compound, the tests were performed on a series of samples, with the weight of 100 milligrams, added for the wet tests with 1 ml of distilled water. […] The sample were kept in a thermostat at increasing temperatures, i.e. from 25° to 80° C. […] The temperature, programmed according to the Rogers' formula, resulted to be 40° C. at the end of the first hour, 50° C. at the end of the second hour, 57° C. at the end of the third hour, 63° C. at the end of the fourth hour, 69° C. at the end of the fifth hour, 73° C. at the end of the sixth hour, 77° C. at the end of the seventh hour and, as already specified, 80° C. at the end of the eighth hour.
Still in Table 5, the sample from 1 to 5 refer, for each of the two compounds, to the dry substance while the samples from 6 to 10 refer to the solution or to the aqueous suspension obtained as above specified.
(§3) In the case of the wet-treated samples, the final weight was only established on the samples No. 10 brought to dryness at 60° C. under vacuum after an 8-hour heating.

[4] = Stability test: melting point before and after heating; assay type: physicochemical
Method: as §2
The melting point was established in a capillary tube, under identical conditions, on the samples No. 5 after heating for 8 hours in the previously specified conditions, and on the samples No. 10 after heating and evaporation to dryness as previously specified.

physchem = assay: physchem
Method: as §2, §3

[5] = Rogers' nonisothermic method: energies of activation, specific velocities, validity periods; assay type: physicochemical
Method: as §2
The data shown in Table 7 were worked out according to the Rogers' method, drawing up the values of the energies of activation of the decomposition reactions under dry and wet conditions, the specific rate constants as well as the validity period.

[6] = Solubility and organoleptic properties; assay type: physicochemical; conditions: 100 milligrams with 1 ml of distilled water
mouse [7] = conditions: oral, 10 animals per dose
mouse [8] = conditions: intravenous, 10 animals per dose
[9] = background; cited from earlier work
in vivo [10] = conditions: mouse, po
in vivo [11] = conditions: mouse, iv
[12] = sample 1, dry, 1 hour 30 minutes
[13] = sample 3, dry, 5 hours 15 minutes
[14] = sample 5, dry, 8 hours, listed as 2-thiopropionylglycine
[15] = sample 10, wet, 8 hours, brought to dryness

CC(=O)N[C@@H](CS)C(=O)O [N-acetylcysteine, reference compound]
fit of cough on aerosol administration (elderly patients; in vivo): frequently happens | decrease of the sputum, comparison of (I) and N-acetylcysteine (elderly patients; twenty control patients on N-acetylcysteine): overall comparable with those provided by the compound (I)

CC(S)C(=O)NCC(=O)O (centres unmarked) [compound (II), 2-mercaptopropionylglycine, reference compound]
LD50 at 168 h (in vivo [1]; im): 1630 mg/kg | mortality at 168 h (in vivo [1]; im, 1500 mg/kg): 20% | mortality at 168 h (in vivo [1]; im, 1750 mg/kg): 60% | mortality at 168 h (in vivo [1]; im, 2000 mg/kg): 100% | mortality at 168 h (in vivo [1]; po, 1500 mg/kg): 0% | mortality at 168 h (in vivo [1]; po, 2000 mg/kg): 0% | mortality at 168 h (in vivo [1]; po, 2500 mg/kg): 20% | No. Animals Dead (rat; intramuscular, 1500 mg/kg): 2 | No. Animals Dead (rat; intramuscular, 1750 mg/kg): 6 | No. Animals Dead (rat; intramuscular, 2000 mg/kg): 10 | No. Animals Dead (rat; oral, 1500 mg/kg): 0 | No. Animals Dead (rat; oral, 2000 mg/kg): 0 | No. Animals Dead (rat; oral, 2500 mg/kg (highest dose)): 2 | liver weight increase consequent to CCl4 [2]: can prevent the liver weight increase | liver protective effect (bromobenzene poisoning): lower than that induced by the investigational compound, and statistically not significant | deaths (mercuric chloride): 10% | Color [3, 12]: white | Weight Fin. [3, 12]: 98.3 mg | Weight Variations [3, 12]: -5.4% | Color ([3]; sample 2, dry, 3 hours): white | Weight Fin. ([3]; sample 2, dry, 3 hours, listed as 2-thiopropionylglycine): 93.0 mg | Color [3, 13]: white | Weight Fin. [3, 13]: 94.8 mg | Weight Variations [3, 13]: -5.67% | Color ([3]; sample 4, dry, 8 hours): white | Weight Fin. ([3]; sample 4, dry, 8 hours): 95.7 mg | Weight Variations ([3]; sample 4, dry, 8 hours): -5.53% | Weight Fin. [3, 14]: 198.9 mg | Weight Variations [3, 14]: -2.83% | Color ([3]; sample 6, wet): colorless | Color ([3]; sample 7, wet): colorless | Color ([3]; sample 8, wet): colorless | Color ([3]; sample 9, wet): yellowish | Weight Fin. [3, 15]: 193.8 mg | Weight Variations [3, 15]: -3.1% | melting point variation ([4]; after heating): marked decrease of the melting point in the case of the wet sample | Final m.p. wet conditions (Sample 10) ([4]; after heating 8 hours wet and evaporation to dryness): 86-88 °C | Final m.p. dry conditions (Sample 5) ([4]; after heating for 8 hours, dry): 92-94 °C | Initial m.p. ([4]; before heating): 93-95 °C | Content (physchem): 101.43% | E at 232 nm (physchem; as such): 0.329 | remaining at 1.5 h (physchem; dry): 101% | remaining at 3 h (physchem; dry): 101% | remaining at 5.25 h (physchem; dry): 99.5% | remaining at 8 h (physchem; dry): 98.4% | E at 232 nm (physchem; sample 1, dry): 0.325 | E at 232 nm (physchem; sample 2, dry): 0.324 | E at 232 nm (physchem; sample 3, dry): 0.325 | E at 232 nm (physchem; sample 4, dry): 0.324 | E at 232 nm (physchem; sample 6, wet): 0.333 | E at 232 nm (physchem; sample 7, wet): 0.325 | E at 232 nm (physchem; sample 8, wet): 0.320 | E at 232 nm (physchem; sample 9, wet): 0.300 | Energy of activation of the decomposition reaction ([5]; dry): 15.66 kcal/mol | Energy of activation of the decomposition reaction ([5]; wet): 11.54 kcal/mol | appearance in water [6]: clear solution | No. Animals Dead (mouse [7]; 1500 mg/kg): 0 | No. Animals Dead (mouse [7]; 2000 mg/kg): 1 | No. Animals Dead (mouse [7]; 2500 mg/kg (highest dose)): 2 | No. Animals Dead (mouse [8]; 500 mg/kg): 0 | No. Animals Dead (mouse [8]; 750 mg/kg): 0 | No. Animals Dead (mouse [8]; 1000 mg/kg): 1 | stability (known) [9]: low stability | mortality (in vivo [10]; 1500 mg/kg): 0% | mortality (in vivo [10]; 2000 mg/kg): 10% | mortality (in vivo [10]; 2500 mg/kg): 20% | mortality (in vivo [11]; 500 mg/kg): 0% | mortality (in vivo [11]; 750 mg/kg): 0% | mortality (in vivo [11]; 1000 mg/kg): 10%
